≈ marks a conversion by molar mass, not a printed value.
Tests used:
Water solubility = format: physicochemical
[1] = Antitumor activity for L1210 (life prolonging effect, mouse leukemia transplanted intraperitoneally); format: in vivo; conditions: mouse, in vivo, ip; numerator of therapeutic index; i.p. total dose; read-out: Maximum tolerable dose
Experimental: (§1) 5×10^5 cells of mouse leukemia L1210 were transplanted intraperitoneally to a group of six female CDF1 mice (7 weeks old, body weight 17-19 g). The test compound was administered intraperitoneally on day 1, 5 and 9 and its life prolonging effect was observed.
(§2) In a case of the administration of a test compound as an acid addition salt the test compound was dissolved in water. The total administration amount was 1.56 mg/kg-400 mg/kg. The antitumor activity was expressed by the value (T/C%) wherein T denotes the mean survival days in the drug administered group and C denotes those in the non administered group. In case of equal to or more than 125% the drug is considered to be effective.

mouse leukemia L1210 = experiment: as above; format: in vivo; conditions: for minimal effective dose: Mus musculus, L1210, ip, denominator of therapeutic index, i.p. total dose, read-out: Minimum effective dose; for 40-day survivors: at optimum dose, group of six female CDF1 mice; for Therapeutic Index (Maximum tolerable dose/Minimum effective dose): i.p., L1210, CDF1 mice
Experimental: as §1, §2

[2] = Acute toxicity test by intraperitoneal administration; conditions: mouse, in vivo, ip, ICR male mice, 1 week observation
Experimental: Acute toxicity test was conducted by intraperitoneal administration using a group of twenty ICR male mice (4 weeks old, body weight around 20 g).
LD50 value was calculated by the Richfield-Willcokson method from a lethal ratio observing the fate of mice during 1 week after administration of a test compound.

`CCc1c2c(nc3cc(Cl)c(Cl)cc13)-c1cc([C@@](O)(CC)C(=O)NCCN(C)C)c(COC(=O)CCSC)c(=O)n1C2` [Compound C19] gave a solubility (Water solubility) of 24 mg/mL (≈ 37.8 mM), an MTD [1] of 3.13 mg/kg and a minimal effective dose (mouse leukemia L1210) of less than 1.56 mg/kg. For the same compound, the 40-day survivors (mouse leukemia L1210) was 0/6, the “Therapeutic Index (Maximum tolerable dose/Minimum effective dose)” value (mouse leukemia L1210) was greater than 2 and the LD50 at 168 h [2] was 94.8 mg/kg.

In the case of `CCC(=O)OCc1c([C@@](O)(CC)C(=O)NCCN(C)C)cc2n(c1=O)Cc1c-2nc2cc(F)c(OC)cc2c1CC` [Compound C20], the solubility (Water solubility) is reported as greater than 60 mg/mL, the MTD [1] is reported as 3.13 mg/kg and the minimal effective dose (mouse leukemia L1210) is reported as less than 1.56 mg/kg. For the same compound, the 40-day survivors (mouse leukemia L1210) was 0/6, the “Therapeutic Index (Maximum tolerable dose/Minimum effective dose)” value (mouse leukemia L1210) was greater than 2 and the LD50 at 168 h [2] was 84.5 mg/kg.

`CCCC(=O)OCc1c([C@@](O)(CC)C(=O)NCCN(C)C)cc2n(c1=O)Cc1c-2nc2cc(F)c(OC)cc2c1CC` [Compound C21] gave a solubility (Water solubility) greater than 63 mg/mL, an MTD [1] of 3.13 mg/kg and a minimal effective dose (mouse leukemia L1210) of less than 1.56 mg/kg. The 40-day survivors (mouse leukemia L1210) was 0/6, the “Therapeutic Index (Maximum tolerable dose/Minimum effective dose)” value (mouse leukemia L1210) was greater than 2 and the LD50 at 168 h [2] was 124 mg/kg.

With `CCC(=O)OCc1c([C@@](O)(CC)C(=O)NCCN(C)C)cc2n(c1=O)Cc1c-2nc2cc(F)c(C)cc2c1CC` [Compound C23] the solubility (Water solubility) was 20 mg/mL (≈ 36.2 mM), the MTD [1] was 12.5 mg/kg and the minimal effective dose (mouse leukemia L1210) was less than 1.56 mg/kg. For the same compound, the 40-day survivors (mouse leukemia L1210) was 0/6, the “Therapeutic Index (Maximum tolerable dose/Minimum effective dose)” value (mouse leukemia L1210) was greater than 8 and the LD50 at 168 h [2] was 184 mg/kg.

`CCCC(=O)OCc1c([C@@](O)(CC)C(=O)NCCN(C)C)cc2n(c1=O)Cc1c-2nc2cc(F)c(C)cc2c1CC` [Compound C24] showed a solubility (Water solubility) of 42 mg/mL (≈ 74.1 mM), an MTD [1] of 25 mg/kg and a minimal effective dose (mouse leukemia L1210) of 1.56 mg/kg. For the same compound, the 40-day survivors (mouse leukemia L1210) was 1/6, the “Therapeutic Index (Maximum tolerable dose/Minimum effective dose)” value (mouse leukemia L1210) was greater than 16 and the LD50 at 168 h [2] was 203 mg/kg.

In the case of `CCc1c2c(nc3cc(F)c(C)cc13)-c1cc([C@@](O)(CC)C(=O)NCCN(C)C)c(COC(=O)CCSC)c(=O)n1C2` [Compound C25], the solubility (Water solubility) is reported as greater than 63 mg/mL, the MTD [1] is reported as 12.5 mg/kg and the minimal effective dose (mouse leukemia L1210) is reported as less than 1.56 mg/kg. For the same compound, the 40-day survivors (mouse leukemia L1210) was 1/6, the “Therapeutic Index (Maximum tolerable dose/Minimum effective dose)” value (mouse leukemia L1210) was greater than 8 and the LD50 at 168 h [2] was 154 mg/kg.

Work on `CCc1c2c(nc3cc(F)c(C)cc13)-c1cc([C@@](O)(CC)C(=O)NCCN(C)C)c(COC(=O)c3ccc(OC)cc3)c(=O)n1C2` [Compound C26] yielded a solubility (Water solubility) of 9 mg/mL (≈ 14.3 mM), an MTD [1] of 50 mg/kg and a minimal effective dose (mouse leukemia L1210) of 12.5 mg/kg. For the same compound, the 40-day survivors (mouse leukemia L1210) was 0/6, the “Therapeutic Index (Maximum tolerable dose/Minimum effective dose)” value (mouse leukemia L1210) was greater than 4 and the LD50 at 168 h [2] was 113 mg/kg.

`CCC(=O)OCc1c([C@@](O)(CC)C(=O)NCCN(C)C)cc2n(c1=O)Cc1c-2nc2ccc(O)cc2c1CC` [Compound C28] showed a solubility (Water solubility) greater than 56 mg/mL, an MTD [1] of 200 mg/kg and a minimal effective dose (mouse leukemia L1210) of 12.5 mg/kg. The 40-day survivors (mouse leukemia L1210) was 0/6, the “Therapeutic Index (Maximum tolerable dose/Minimum effective dose)” value (mouse leukemia L1210) was 16 and the LD50 at 168 h [2] was 341 mg/kg.

`CCCC(=O)OCc1c([C@@](O)(CC)C(=O)NCCN(C)C)cc2n(c1=O)Cc1c-2nc2ccc(O)cc2c1CC` [Compound C30] showed a solubility (Water solubility) greater than 58 mg/mL, an MTD [1] of 200 mg/kg and a minimal effective dose (mouse leukemia L1210) of 6.25 mg/kg. For the same compound, the 40-day survivors (mouse leukemia L1210) was 0/6, the “Therapeutic Index (Maximum tolerable dose/Minimum effective dose)” value (mouse leukemia L1210) was 32 and the LD50 at 168 h [2] was 362 mg/kg.

Compound `CCc1c2c(nc3ccc(O)cc13)-c1cc([C@@](O)(CC)C(=O)NCCN(C)C)c(COC(=O)CCSC)c(=O)n1C2` [Compound C32] has a solubility (Water solubility) greater than 62 mg/mL, an MTD [1] of 200 mg/kg and a minimal effective dose (mouse leukemia L1210) of 6.25 mg/kg. The 40-day survivors (mouse leukemia L1210) was 0/6, the “Therapeutic Index (Maximum tolerable dose/Minimum effective dose)” value (mouse leukemia L1210) was 32 and the LD50 at 168 h [2] was 307 mg/kg.

`CCc1c2c(nc3ccc(O)cc13)-c1cc([C@@](O)(CC)C(=O)NCCN(C)C)c(COC(=O)c3ccc(F)cc3)c(=O)n1C2` [Compound C36] gave a solubility (Water solubility) of 17 mg/mL (≈ 28.2 mM), an MTD [1] of 200 mg/kg and a minimal effective dose (mouse leukemia L1210) of 12.5 mg/kg. The 40-day survivors (mouse leukemia L1210) was 0/6, the “Therapeutic Index (Maximum tolerable dose/Minimum effective dose)” value (mouse leukemia L1210) was 16 and the LD50 at 168 h [2] was 477 mg/kg.

Compound `CCc1c2c(nc3ccc(O)cc13)-c1cc([C@@](O)(CC)C(=O)NCCN(C)C)c(COC(=O)c3cccc(F)c3)c(=O)n1C2` [Compound C38] has a solubility (Water solubility) of 6 mg/mL (≈ 9.96 mM), an MTD [1] of 200 mg/kg and a minimal effective dose (mouse leukemia L1210) of 12.5 mg/kg. The 40-day survivors (mouse leukemia L1210) was 0/6, the “Therapeutic Index (Maximum tolerable dose/Minimum effective dose)” value (mouse leukemia L1210) was 16 and the LD50 at 168 h [2] was 421 mg/kg.

Source: US5843954A, “Camptothecin derivatives, preparations thereof and antitumor agents” (priority 1994, dated 1998)
